Experimental data: patent US11773146B2, “Disruption of the WAVE3 protein complex for suppression of invasion and metastasis” (UNIVERSITY OF GEORGIA RESEARCH FOUNDATION, INC., priority 2015, dated 2023)
Entries after “also recorded” stand apart in the source; their conditions may differ. Bridges are numbered along the chain shown (N, C = ends). Where no end group is shown, it is not given here. [ ]: non-standard residue; d: D form. S5 = C=CCCC[C@](C)(N)C(=O)O

Experiments:
WASF3 [1] = test: IP analysis of WASF3 phosphorylation; type: cell-based; conditions: for WASF3 phosphorylation levels: MDA-MB-231 cells, same effect in PC3; for suppression of WASF3 phosphorylation compared with 17-AAG: comparison with HSP90 inhibitor 17-AAG
Procedure: (§1) Immunoprecipitation assays were carried out as described previously (Sossey-Alaoui, K., et al. J. Biol. Chem. 82:26257-26265 (2007)). Specially, to determine the physical interaction with individual peptides, MDA-MB-231 cells were pretreated with 10 μM biotin-labeled peptides for 24 hours and lysates were incubated with immobilized avidin resin overnight at 4° C. The pull down samples were subjected to SDS-PAGE followed by Western blot analysis.

WASF3, NCKAP1 or RAC1 = test: Western blot of protein levels with RAC1 inhibitor; type: cell-based; conditions: MDA-MB-231 and Hs578T cells
Source text: (§2) MDA-MB-231, Hs578T and T47D breast cancer cell lines were obtained directly from American Type Culture Collection (Rockville, Md.). MDA-MB-231 and T47D and have been verified using SNP-CGH (Teng Y, et al. Int J Cancer 2011 129:2825-2835) for characteristic cytogenetic changes. The ATCC Cell Authentication Testing service confirmed the identity of Hs578T using STR DNA fingerprinting analysis. Standard cell culture, transient transfections, RT-PCR, western blotting, immunoprecipitation (IP), flow cytometry, Biotin-Avidin pulldown, lentiviral transduction, cell proliferation and Transwell invasion assays were carried out as described previously (Teng Y, et al. Int J Cancer 2011 129:2825-2835; Teng Y, et al. J Biol Chem 2012 287:10051-10059; Teng Y, et al. Carcinogenesis 2013 34:1994-1999).

[2] = test system: MDA-MB-231 and Hs578T cells; test: Transwell invasion assay with RAC1 inhibitor; type: cell-based; conditions: dose-dependent treatment
Source text: as §2

[3] = test system: MDA-MB-231 cells overexpressing NCKAP1; test: Transwell invasion assay in cells overexpressing NCKAP1; type: cell-based; conditions: parental cells with empty vector and cells overexpressing NCKAP1
Source text: as §2
Lentiviral pCDH-CMV-MCS-EF1-PURO-HA-WASF3 (pCDH-HA-WASF3) was generated as described previously (Teng Y, et al. Carcinogenesis 2013 34:1994-1999). To construct the HA-NCKAP1 overexpression vector, the full-length human NCKAP1 was amplified from the template NCKAP1 cDNA clone (OriGene, Rockville, Md.) and was inserted into pCDHCMV-MCS-EF1-GFP lentiviral vector (System Biosciences, Mountain View, Calif.) as described previously (Teng Y, et al. Oncogene 2014 33:203-211). […]

MDA-MB-231 cells = test: Transwell invasion assay (WANT peptides); type: cell-based; conditions: for invasion potential: final concentration of 10 μM
Source text: There are currently no small molecules that target WASF3 function directly, but targeting the WRC may provide a means of suppressing invasion.

MDA-MB-231 and PC3 cells [4] = test: Scratch wound assay; type: cell-based; conditions: breast and prostate cell lines, versus DMSO and scrambled peptide
Procedure: (§3) Hs578T, MDA-MB-231, DU145 and PC3 cells were purchased from the American Type Culture Collection (ATCC) and maintained according to the supplier's instructions. Lentiviral transduction, cell proliferation assays, wound healing assays, Matrigel invasion assays, Western blotting, flow cytometry and confocal image analysis were carried out as described previously (Teng, Y., et al. Br. J. Cancer 103:1066-1075 (2010); Teng, Y., et al. Int. J. Cancer 129:2825-2835 (2011); Teng, Y., et al. Oncogene 33:203-211 (2014); Teng, Y., et al. J. Biol. Chem. 287:10051-10059 (2012); Teng, Y., et al. Carcinogenesis […] (2013); Teng, Y. et al. Oncogene Mar 30 (2015)).

MDA-MB-231 and PC3 cells [5] = test: MTS cell proliferation assay; type: cell-based; conditions: 10 μM over 24 hours
Procedure: as §3

MDA-MB-231 and PC3 cells [6] = test: Transwell invasion analysis (WAHM peptides); type: cell-based; conditions: breast and prostate cells
Procedure: as §3

MMP-9 = MMP-9 secretion in culture supernatant by ELISA; type: cell-based, Human; conditions: MDA-MB-231 and PC3 cells, 24 hours, compared with scrambled controls
Procedure: After incubation with WAHM or scrambled peptides for 24 hours, MDA-MB-231 and PC3 cell supernatants were recovered and centrifuged at 1000 g at 4° C. for 20 min. MMP-9 levels in supernatants were measured using the Human MMP-9 Quantikine® ELISA kit (R&D Systems) and microplate reader at 450 nm.

KISS1 = test: Western blot of KISS1 levels; type: cell-based; conditions: MDA-MB-231 cells, compared with scrambled peptides
Procedure: as §3

WASF3-CYFIP1 complex = biological target: T1, WASF3-CYFIP1 complex (Homo sapiens, UniProt Q7L576); test: IP of WASF3: presence of CYFIP1 in the immunocomplex; type: cell-based; conditions: MDA-MB-231 cells treated with the SPs
T1 construct: endogenous in cells; host or cells: MDA-MB-231
Procedure: as §1

MDA-MB-231 and PC3 cells [7] = test: Phalloidin staining and quantitation of filamentous actin; type: cell-based; conditions: 24 hours; for actin stress fibers (phalloidin staining): 10 μM; for fluorescence intensity of phalloidin stained cells: versus DMSO or scrambled peptides
Procedure: MDA-MB-231 and PC3 cells were seeded (10,000 cells per well) on slides with the Nunc™ Lab-Tek™ II Chamber Slide™ System (Thermo Fisher Scientific) in complete medium overnight and incubated with 10 μM WAHM or scrambled peptides for 24 hours. Cells were then fixed with 3.7% formaldehyde for 15 min and permeabilized with 0.1% Triton X-100 for 10 min and incubated with Texas-red phalloidin (Life technologies) for an additional 30 min to stain actin filaments. Cells were imaged using a Zeiss LSM 410 confocal microscope equipped with ×63 (1.4 numerical aperture) oil objective (Carl Zeiss) as previously described8. To quantitate the filamentous actin, cells were seeded at 2000 cells per well in a 96 well plate and treated with […] or scrambled peptides for 24 hours. Cells were then stained with phalloidin as described above, followed by extensive washings. Phallodin was solubilized with methanol and the supernatant was transferred to a clear-bottom black plate, and the fluorescence was determined using Infinite® M1000 PRO (Tecan). A parallel set of cells was used to determine cell number using the CellTiter-Glo® Luminescent Cell Viability kit from Promega (Madison), according to the manufacturer's parameters. Data from three independent experiments were expressed as mean relative fluorescence units per cell SEM.

WASF3 [8] = test: Western blot of WASF3 protein levels after WAHM treatment; type: cell-based; conditions: for WASF3 levels in serum-starved cells: MDA-MB-231 and PC3 cells starved overnight, then treated for 4 hours; for intracellular levels of either WASF3 or CYFIP1: MDA-MB-231 cells; for WASF3 protein levels: MDA-MB-231 cells in serum, 2 to 24 hours
Procedure: as §3

CYFIP1 = biological target: T2, CYFIP1 (Homo sapiens, UniProt Q7L576); test: Avidin-biotin pull down with biotinylated stapled peptides; type: binding; conditions: biotinylated peptide 10 μM, MDA-MB-231 cells
T2 construct: endogenous in cells; host or cells: MDA-MB-231
Procedure: as §1
To determine whether the SPs formed a complex with WASF3 within the cells, MDA-MB-231 cells were exposed to biotinylated WAHM1 and WAHM2 for 6 hours, after which the cells were lysed and pull down assays were performed using avidin-coated beads.

T1 sequence (Q7L576 whole entry): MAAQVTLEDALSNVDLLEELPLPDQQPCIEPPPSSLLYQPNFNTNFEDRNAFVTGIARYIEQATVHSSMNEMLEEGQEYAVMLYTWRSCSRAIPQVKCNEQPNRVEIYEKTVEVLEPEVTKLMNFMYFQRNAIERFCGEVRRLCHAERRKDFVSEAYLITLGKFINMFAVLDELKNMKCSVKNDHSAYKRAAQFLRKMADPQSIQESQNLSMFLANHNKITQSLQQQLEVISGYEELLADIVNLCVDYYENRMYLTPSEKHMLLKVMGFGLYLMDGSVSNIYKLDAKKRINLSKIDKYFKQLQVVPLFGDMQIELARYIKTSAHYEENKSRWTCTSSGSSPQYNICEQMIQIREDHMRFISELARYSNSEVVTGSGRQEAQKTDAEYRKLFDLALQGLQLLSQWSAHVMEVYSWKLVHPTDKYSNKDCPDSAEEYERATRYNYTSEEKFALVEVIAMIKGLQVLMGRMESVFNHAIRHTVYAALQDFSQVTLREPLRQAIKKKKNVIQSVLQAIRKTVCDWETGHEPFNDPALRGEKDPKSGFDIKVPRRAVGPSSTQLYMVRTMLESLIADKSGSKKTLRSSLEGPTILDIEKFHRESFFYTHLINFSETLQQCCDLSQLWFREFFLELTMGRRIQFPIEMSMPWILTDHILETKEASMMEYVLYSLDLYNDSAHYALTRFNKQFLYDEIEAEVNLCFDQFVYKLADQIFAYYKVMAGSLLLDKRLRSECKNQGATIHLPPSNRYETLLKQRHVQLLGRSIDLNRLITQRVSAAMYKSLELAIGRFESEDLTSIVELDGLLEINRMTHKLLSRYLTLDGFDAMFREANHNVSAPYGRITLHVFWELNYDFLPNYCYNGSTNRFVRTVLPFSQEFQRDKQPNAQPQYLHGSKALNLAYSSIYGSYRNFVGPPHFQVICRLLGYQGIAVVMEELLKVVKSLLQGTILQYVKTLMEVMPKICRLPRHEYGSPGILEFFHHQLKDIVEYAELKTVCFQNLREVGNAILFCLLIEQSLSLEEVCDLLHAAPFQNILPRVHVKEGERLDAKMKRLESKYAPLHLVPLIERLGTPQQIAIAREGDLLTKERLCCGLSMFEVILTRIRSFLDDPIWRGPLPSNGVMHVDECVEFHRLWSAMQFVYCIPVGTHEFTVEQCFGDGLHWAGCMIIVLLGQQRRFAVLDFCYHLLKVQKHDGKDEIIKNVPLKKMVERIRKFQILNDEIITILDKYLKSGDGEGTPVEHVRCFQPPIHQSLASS
T1 sequence (Q9Y2A7 2-1128 partner limits assumed): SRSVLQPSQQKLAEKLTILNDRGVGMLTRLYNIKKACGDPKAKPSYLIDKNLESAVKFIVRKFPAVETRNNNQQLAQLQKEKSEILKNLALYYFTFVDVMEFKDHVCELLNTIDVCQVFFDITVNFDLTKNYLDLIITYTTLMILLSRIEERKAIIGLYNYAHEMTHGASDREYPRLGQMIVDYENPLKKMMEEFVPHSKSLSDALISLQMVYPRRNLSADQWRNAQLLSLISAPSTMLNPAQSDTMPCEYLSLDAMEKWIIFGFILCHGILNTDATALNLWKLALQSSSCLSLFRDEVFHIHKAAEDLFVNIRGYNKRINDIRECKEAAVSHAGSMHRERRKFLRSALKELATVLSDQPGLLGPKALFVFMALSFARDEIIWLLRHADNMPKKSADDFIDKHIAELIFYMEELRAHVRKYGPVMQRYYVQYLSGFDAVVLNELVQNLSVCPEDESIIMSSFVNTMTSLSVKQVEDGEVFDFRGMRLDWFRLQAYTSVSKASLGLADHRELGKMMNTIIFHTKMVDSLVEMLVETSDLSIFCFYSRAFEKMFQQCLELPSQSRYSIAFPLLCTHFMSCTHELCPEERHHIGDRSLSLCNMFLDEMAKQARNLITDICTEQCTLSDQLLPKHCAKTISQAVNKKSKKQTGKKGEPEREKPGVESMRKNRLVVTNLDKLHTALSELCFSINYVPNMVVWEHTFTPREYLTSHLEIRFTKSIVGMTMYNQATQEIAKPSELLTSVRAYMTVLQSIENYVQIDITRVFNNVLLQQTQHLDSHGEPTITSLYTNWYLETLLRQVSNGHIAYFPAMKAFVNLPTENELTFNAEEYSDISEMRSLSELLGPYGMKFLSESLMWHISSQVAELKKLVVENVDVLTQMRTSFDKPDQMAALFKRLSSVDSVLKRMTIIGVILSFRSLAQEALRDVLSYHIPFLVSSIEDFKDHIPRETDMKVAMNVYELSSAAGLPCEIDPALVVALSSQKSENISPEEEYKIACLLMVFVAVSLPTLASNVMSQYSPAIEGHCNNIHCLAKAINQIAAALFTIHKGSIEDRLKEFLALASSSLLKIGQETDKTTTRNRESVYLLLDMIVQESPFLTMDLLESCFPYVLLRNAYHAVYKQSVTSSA
T2 sequence (Q7L576 whole entry): as the sequence (Q7L576 whole entry) above

Compound | WASF3 phosphorylation levels (WASF3 [1]) | invasion potential (MDA-MB-231 cells) | suppression of WASF3 phosphorylation compared with 17-AAG (WASF3 [1]) | migration potential / cell motility (MDA-MB-231 and PC3 cells [4]) | cell proliferation (MTS) (MDA-MB-231 and PC3 cells [5]) | effect on invasion (in words) (MDA-MB-231 and PC3 cells [6]) | secreted MMP9 levels (MMP-9) | KISS1 protein levels (KISS1) | CYFIP1 in WASF3 immunocomplex (WASF3-CYFIP1 complex) | actin stress fibers (phalloidin staining) (MDA-MB-231 and PC3 cells [7]) | fluorescence intensity of phalloidin stained cells (MDA-MB-231 and PC3 cells [7]) | WASF3 levels in serum-starved cells (WASF3 [8]) | intracellular levels of either WASF3 or CYFIP1 (WASF3 [8]) | WASF3 protein levels (WASF3 [8]) | CYFIP1 in the pull down complex (CYFIP1) | further results
C=CCNC1=C2C[C@@H](C)C[C@H](OC)[C@H](O)[C@@H](C)/C=C(\C)[C@H](OC(N)=O)[C@@H](OC)/C=C\C=C(/C)C(=O)NC(=CC1=O)C2=O [17-AAG, reference compound] | reduced WASF3 phosphoactivation | – | – | – | – | – | – | – | – | – | – | – | – | – | – | –
CCN(CC)CCCC(C)Nc1nc(C)cc(Nc2ccc3nc(C)cc(N)c3c2)n1 (stereo not drawn) [NSC23766] | – | – | – | – | – | – | – | – | – | – | – | – | – | – | – | protein levels of either WASF3, NCKAP1 or RAC1 (WASF3, NCKAP1 or RAC1): without affecting; also recorded: does not affect protein levels; invasion [2]: dose-dependent reduction in invasion potential; invasion potential in cells expressing NCKAP1 [3]: significant reduction in invasion; invasion potential in cells expressing NCKAP1 ([3]; listed as NSC23677): significant reduction of invasion potential
ELXSSIXDFKDHK (EL[S5]SSI[S5]DFKDHK-NH2; staple 3-7) [WANT2, WASF3-NCKAP1 Target stapled peptide; X is (S)-2-(4′-pentenyl)alanine] | – | no significant effect on invasion potential | – | – | – | – | – | – | – | – | – | – | – | – | – | –
KHCAXTISXAVNK (KHCA[S5]TIS[S5]AVNK-NH2; staple 5-9) [WANT1, WASF3-NCKAP1 Target stapled peptide; X is (S)-2-(4′-pentenyl)alanine] | – | no significant effect on invasion potential | – | – | – | – | – | – | – | – | – | – | – | – | – | –
LEK*TNS*LAKIIRQL (LEK[S5]TNS[S5]LAKIIRQL-NH2; staple 4-8; not fully specified (N-terminus)) [WAHM1, WASF Helix Mimic stapled peptide; * is (S)-2-(4′-pentenyl)alanine that forms the staple] | dramatic decrease in WASF3 phosphorylation levels; also recorded: reduction in WASF3 phosphorylation | – | more efficient | reduced migration potential; also recorded: significant reduction in cell motility | no significant difference in cell proliferation | significantly suppresses invasion | remarkable reduction in secreted MMP9 levels; also recorded: significantly reduced MMP9 levels | increased KISS1 levels; also recorded: KISS1 levels increase | CYFIP1 was not present in the immunocomplex | increase in both the number and thickness of the actin stress fibers | increased intensity | reduced below detectable levels | did not affect | WASF3 protein levels were not affected; also recorded: without a reduction in WASF3 protein levels; also recorded: no reduction in WASF3 protein levels | CYFIP1 was present in the pull down complex; also recorded: CYFIP1 was shown to interact | suppression of invasion, WAHM1 compared with WANT3 (MDA-MB-231 cells): comparable suppression of invasion
LEKKTN*TLA*IIRQL (LEKKTN[S5]TLA[S5]IIRQL-NH2; staple 7-11; not fully specified (N-terminus)) [WAHM2, WASF Helix Mimic stapled peptide; * is (S)-2-(4′-pentenyl)alanine that forms the staple] | dramatic decrease in WASF3 phosphorylation levels; also recorded: reduction in WASF3 phosphorylation | – | more efficient | reduced migration potential; also recorded: significant reduction in cell motility | no significant difference in cell proliferation | significantly suppresses invasion | remarkable reduction in secreted MMP9 levels; also recorded: significantly reduced MMP9 levels | increased KISS1 levels; also recorded: KISS1 levels increase | CYFIP1 was not present in the immunocomplex | increase in both the number and thickness of the actin stress fibers | increased intensity | reduced below detectable levels | did not affect | WASF3 protein levels were not affected; also recorded: without a reduction in WASF3 protein levels; also recorded: no reduction in WASF3 protein levels | CYFIP1 was present in the pull down complex; also recorded: CYFIP1 was shown to interact | –
